Test results reported in publication PMC10766536 (The Journal of Antibiotics, 2023).
Entries after “also recorded” stand apart in the source; their conditions may differ.

Assays:
[1] = test system: S. aureus NRS384; test: S. aureus broth killing (growth inhibition) assay; conditions: S. aureus NRS384, TSB, 24 h, OD600
Text: (§3) To test the potency of rifamycin analogs of the disclosure in vitro, a broth growth inhibition assay was developed.

[2] = test system: S. aureus NRS384; test: S. aureus intracellular killing assay in THP-1 macrophages; format: cell-based; conditions: S. aureus NRS384 in THP-1 macrophages, 2 h, top conc. 1e−6 M
Procedure: (§1) THP-1 monocytic cell line (American Type Culture Collection) was grown in media (RPMI + 10% FBS + 1% Penicillin/Streptomycin), then seeded at a density of 1e5 cells/well in a 96 well plate and differentiated into macrophages for 3 days prior to infection using 200 nM PMA. Overnight culture of S. aureus or S. typhimurium was grown in RPMI or TSB, respectively, washed twice with PBS and resuspended at 1e7 cfu/ml in PBS. THP-1 were washed with warm media (RMPI without FBS) to remove the Penicillin/Streptomycin and then infected with the bacterial suspension at a multiplicity of infection of 10:1 (S. aureus:macrophages) or 5:1 (S. typhimurium:macrophages). Plates were centrifuged at 300 × g for 5 min to synchronize adhesion of the bacteria to the macrophages, then incubated at 37 °C for 2 h for S. aureus infection or 1 h for S. typhimurium infection. Free-floating bacteria were removed by washing twice with warm media and the remaining extracellular bacteria were killed by addition of media containing gentamicin (50 ug/ml). After 1 h, media was aspirated and the indicated compound was added to the S. aureus-infected macrophages in a dilution series starting at 1e−6 M, with 1:5 dilutions for 6 points (1.0 × 10^−6 M, 2.0 × 10^−7 M, 4.0 × 10^−8 M, 8.0 × 10^−9 M, 1.6 × 10^−9 M, and 3.2 × 10^−10 M) or to the to the S. typhimurium-infected macrophages in a dilution series starting at 1e−4 M, with 1:3 dilutions followed by 1:10 dilutions for 6 points (1.0 × 10^−4 M, 3.0 × 10^−5 M, 1.0 × 10^−5 M, 1.0 × 10^−6 M, 1.0 × 10^−7 M, and 1.0 × 10^−8 M). The compounds were added in media containing 50 µg/ml gentamicin to prevent extracellular growth of bacteria. After 2 h, plates were washed twice with warm RPMI without FBS, and 100 μl of THP-1 lysis buffer (0.1% Triton in PBS) was added to each well. Bacterial survival was enumerated by colony forming units (cfu) through serial dilution and plating onto tryptic soy agar (TSA, Teknova) plates.

[3] = test system: S. aureus MRSA strain NRS384; test: S. aureus IV advanced disseminated infection mouse model, kidney burden; format: in vivo, Balb/c mice; conditions: for S. aureus kidney burden, efficacy: NRS384
Procedure: (§2) S. aureus MSRA strain NRS384 or N315 (BEI Resources), where indicated, was grown overnight in TSB and sub-cultured to mid-logarithmic phase. […] From 1 to 3 days post-infection, indicated mice were injected subcutaneously with 110 mg/kg vancomycin twice daily where indicated. […] Mice were monitored for weight loss and body conditioning score throughout the infection. At 4 days post-infection, mice were euthanized, and the S. aureus kidney burden was quantified by tissue homogenization followed by enumeration of cfu through serial dilution in PBS and plating onto TSA plates. Data points represent the kidney burden from individual mice tested. Statistical analysis was conducted with GraphPad Prism 9, Version 9.4.1.

[4] = test system: S. aureus MRSA strain N315; test: as above; format: in vivo, Balb/c mice
Procedure: as §2

[5] = test system: Sprague Dawley rats; test: 2-week IV once-a-day toxicity study with 2-week recovery in Sprague Dawley rats
Procedure: A subset from each dose group was maintained for 14 days after the last dose to evaluate delayed toxicity and/or recovery. All animals were observed twice daily for mortality and signs of pain or distress. Detailed clinical observations, body weight measurements and food consumption were conducted weekly; post dose observations (30 min post dose) were conducted daily or as required. Clinical pathology evaluations (hematology, coagulation parameters, and serum chemistry) were performed using samples collected on the day of scheduled sacrifice (main and recovery). At the end of the 14-day dosing period, and at the end of the 14-day recovery period, necropsies were performed on all animals, selected organs were weighed, and tissues were examined macroscopically and microscopically. Toxicokinetic parameters were evaluated on Day 1 and 14.

[6] = biological target: hERG (Homo sapiens, UniProt Q12809); test: in vitro
Chain of hERG (Q12809 whole entry): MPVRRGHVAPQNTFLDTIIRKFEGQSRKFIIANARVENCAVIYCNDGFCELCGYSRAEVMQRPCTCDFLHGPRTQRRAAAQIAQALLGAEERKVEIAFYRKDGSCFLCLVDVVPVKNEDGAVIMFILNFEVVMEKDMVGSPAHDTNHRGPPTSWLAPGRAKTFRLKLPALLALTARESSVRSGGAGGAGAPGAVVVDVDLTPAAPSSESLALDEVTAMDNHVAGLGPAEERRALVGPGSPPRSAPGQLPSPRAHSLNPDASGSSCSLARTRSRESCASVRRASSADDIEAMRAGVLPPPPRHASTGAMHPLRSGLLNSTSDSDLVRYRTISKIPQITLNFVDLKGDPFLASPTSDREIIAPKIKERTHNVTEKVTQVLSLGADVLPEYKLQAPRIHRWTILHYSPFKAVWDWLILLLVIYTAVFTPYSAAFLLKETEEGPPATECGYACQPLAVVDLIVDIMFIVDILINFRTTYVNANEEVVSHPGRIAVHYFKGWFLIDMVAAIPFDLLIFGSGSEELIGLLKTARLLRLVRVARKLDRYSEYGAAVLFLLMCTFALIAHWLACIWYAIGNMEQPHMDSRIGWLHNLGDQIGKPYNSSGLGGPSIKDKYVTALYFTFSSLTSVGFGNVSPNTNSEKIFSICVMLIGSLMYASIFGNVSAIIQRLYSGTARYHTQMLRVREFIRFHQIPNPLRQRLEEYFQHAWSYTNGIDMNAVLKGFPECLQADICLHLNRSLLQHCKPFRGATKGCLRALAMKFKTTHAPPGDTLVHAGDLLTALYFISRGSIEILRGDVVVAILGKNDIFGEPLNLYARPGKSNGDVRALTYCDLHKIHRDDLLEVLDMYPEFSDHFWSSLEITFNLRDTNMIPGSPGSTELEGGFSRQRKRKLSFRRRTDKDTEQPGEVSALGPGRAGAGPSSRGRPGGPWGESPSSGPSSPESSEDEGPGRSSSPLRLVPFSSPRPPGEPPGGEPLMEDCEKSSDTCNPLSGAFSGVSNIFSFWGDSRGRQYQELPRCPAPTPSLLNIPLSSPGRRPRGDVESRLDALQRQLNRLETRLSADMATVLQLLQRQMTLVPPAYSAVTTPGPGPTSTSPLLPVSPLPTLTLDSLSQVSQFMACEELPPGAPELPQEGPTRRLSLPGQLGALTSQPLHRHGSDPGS

[7] = Human plasma protein binding
[8] = test system: Salmonella typhimurium AR-0031; test: S. typhimurium broth killing (growth inhibition) assay; conditions: Salmonella typhimurium AR-0031, TSB, 24 h
Text: as §3

[9] = test system: Salmonella typhimurium ATCC 14028; test: S. typhimurium intracellular killing assay in THP-1 macrophages; format: cell-based; conditions: Salmonella typhimurium ATCC 14028 in THP-1 macrophages, top conc. 1e−4 M
Procedure: as §1

[10] = test system: Salmonella typhimurium AR-0031; test: as above; format: cell-based; conditions: Salmonella typhimurium AR-0031 in THP-1 macrophages, top conc. 1e−4 M
Procedure: as §1

[11] = biological target: P-gp (MDR1) (Homo sapiens, UniProt P08183); test: in vitro; conditions: dog, MDCK-MDR1
Chain of P-gp (MDR1) (P08183 whole entry): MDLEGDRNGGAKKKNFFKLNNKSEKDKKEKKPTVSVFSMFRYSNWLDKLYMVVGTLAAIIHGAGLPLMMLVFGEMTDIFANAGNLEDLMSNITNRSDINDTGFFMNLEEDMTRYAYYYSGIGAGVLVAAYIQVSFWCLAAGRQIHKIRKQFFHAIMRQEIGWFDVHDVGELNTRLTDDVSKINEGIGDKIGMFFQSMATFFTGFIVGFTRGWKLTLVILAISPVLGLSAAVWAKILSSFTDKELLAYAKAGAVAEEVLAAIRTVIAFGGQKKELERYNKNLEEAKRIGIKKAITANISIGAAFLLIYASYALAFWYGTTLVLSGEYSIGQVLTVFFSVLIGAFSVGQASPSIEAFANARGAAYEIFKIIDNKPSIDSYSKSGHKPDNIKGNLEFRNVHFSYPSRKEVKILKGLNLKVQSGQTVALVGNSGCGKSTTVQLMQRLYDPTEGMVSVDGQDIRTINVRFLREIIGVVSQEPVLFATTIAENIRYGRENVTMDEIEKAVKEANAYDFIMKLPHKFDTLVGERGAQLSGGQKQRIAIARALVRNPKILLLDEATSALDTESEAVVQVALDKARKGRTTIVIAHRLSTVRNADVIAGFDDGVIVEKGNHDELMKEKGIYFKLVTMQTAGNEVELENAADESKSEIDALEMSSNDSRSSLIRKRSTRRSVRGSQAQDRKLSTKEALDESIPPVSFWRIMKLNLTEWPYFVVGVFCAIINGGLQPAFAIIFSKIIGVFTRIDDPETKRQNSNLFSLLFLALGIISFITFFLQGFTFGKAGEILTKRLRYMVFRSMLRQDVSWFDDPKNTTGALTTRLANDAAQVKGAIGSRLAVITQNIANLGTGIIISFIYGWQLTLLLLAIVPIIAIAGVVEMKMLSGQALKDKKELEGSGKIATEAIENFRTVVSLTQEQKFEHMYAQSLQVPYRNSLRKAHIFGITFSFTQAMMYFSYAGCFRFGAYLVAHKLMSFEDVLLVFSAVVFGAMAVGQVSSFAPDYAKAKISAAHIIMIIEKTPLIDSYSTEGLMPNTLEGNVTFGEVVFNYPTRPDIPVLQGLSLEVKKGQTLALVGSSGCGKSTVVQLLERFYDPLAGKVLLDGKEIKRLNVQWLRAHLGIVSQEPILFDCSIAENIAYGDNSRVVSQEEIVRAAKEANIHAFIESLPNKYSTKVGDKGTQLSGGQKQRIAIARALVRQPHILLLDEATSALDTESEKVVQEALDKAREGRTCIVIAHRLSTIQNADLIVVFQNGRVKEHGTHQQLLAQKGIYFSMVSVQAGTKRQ

[12] = in vitro; conditions: human, Caco-2
[13] = test system: endogenous transporters; test: in vitro; conditions: human, Caco-2
[14] = human
[15] = test system: Salmonella typhimurium ATCC 14028; test: S. typhimurium broth killing (growth inhibition) assay; conditions: Salmonella typhimurium ATCC 14028, TSB, 24 h
Text: as §3

[16] = test system: Caco-2: endogenous transporters; test: Caco-2 permeability
[17] = in vitro; conditions: SD, rat
[18] = Compound stability in CYP induction assay
[19] = in vitro; conditions: CD-1, mouse
[20] = biological target: MDCK-MDR1: overexpression of Pgp (Homo sapiens, UniProt P08183); test: MDCK-MDR1 permeability and efflux
Chain of MDCK-MDR1: overexpression of Pgp (P08183 whole entry): as above

[21] = test system: CYP2B6; test: in vitro; conditions: human
[22] = test system: CYP3A4; test: in vitro; conditions: human
[23] = test system: CYP1A2; test: in vitro; conditions: human
[24] = 25 mg/kg in combination with vancomycin

Q: For `CNCCOc1ccc2nc3c4c5c6c(C)c(O)c4c(=O)c(c-3oc2c1)NC(=O)C(C)=CC=CC(C)C(O)C(C)C(O)C(C)C(OC(C)=O)C(C)C(OC)C=COC(C)(O6)C5=O` (centres unmarked) [Compound 3], which “Broth MIC” value [1] is on record?
A: Its value is 0.0457 µM.

Q: And the “Intracellular MIC” value [2]?
A: Its value is 1 µM.

Q: For `COC1C=COC2(C)Oc3c(C)c(O)c4c(=O)c(c5oc6ccc(OCCN(C)C)cc6nc-5c4c3C2=O)NC(=O)C(C)=CC=CC(C)C(O)C(C)C(O)C(C)C(OC(C)=O)C1C` (centres unmarked) [Compound 6], which “Broth MIC” value [1] is on record?
A: Its value is 0.0625 µM.

Q: What about the “Intracellular MIC” value [2] of the same compound?
A: Its value is 1 µM.

Q: Which “reduction in S. aureus kidney burden” value ([3]; vancomycin alone, 110 mg/kg sc twice daily days 1-3, NRS384, day 4) does the source give for `CN[C@H](CC(C)C)C(=O)N[C@H]1C(=O)N[C@@H](CC(N)=O)C(=O)N[C@H]2C(=O)N[C@H]3C(=O)N[C@H](C(=O)N[C@H](C(=O)O)c4cc(O)cc(O)c4-c4cc3ccc4O)[C@H](O)c3ccc(c(Cl)c3)Oc3cc2cc(c3O[C@@H]2O[C@H](CO)[C@@H](O)[C@H](O)[C@H]2O[C@H]2C[C@](C)(N)[C@H](O)[C@H](C)O2)Oc2ccc(cc2Cl)[C@H]1O` [Vancomycin, reference compound] here?
A: Its value is 2–3 log.

Q: What about the “reduction in S. aureus kidney burden” value ([4]; vancomycin alone, 110 mg/kg sc twice daily) of the same compound?
A: Its value is ~ 4 log.

Q: What about the “hematology changes (red cell mass decrease, neutrophil decrease, platelet increase)” value ([5]; males given vancomycin alone 110 mg/kg/day, end of treatment) of the same compound?
A: The value was “also noted in males given vancomycin alone”.

Q: What about the “body weight, body weight gains, food consumption changes” value ([5]; rat, IV QD 14 days, alone or in combination with vancomycin) of the same compound?
A: Its value is “no body weight, body weight gains, or food consumption changes”.

Q: Which results are given for `COC1C=COC2(C)Oc3c(C)c(O)c4c(=O)c(c5oc6cc(OCCN)ccc6nc-5c4c3C2=O)NC(=O)C(C)=CC=CC(C)C(O)C(C)C(O)C(C)C(OC(C)=O)C1C` (centres unmarked) [Compound 2]?
A: Broth MIC [1]: 0.412 µM; Intracellular MIC [2]: 1 µM

Q: Which inhibition at 0.09 µM [6] does the source give for `COc1cc(N)c(Cl)cc1C(=O)NC1CCN(CCCOc2ccc(F)cc2)CC1OC` (centres unmarked) [Cisapride] here?
A: The inhibition at 0.09 µM was 87.6%.

Q: Which “% Protein Bound” value [7] does the source give for `CO[C@H]1/C=C/O[C@@]2(C)Oc3c(C)c(O)c4c(O)c(c(/C=N/N5CCN(C)CC5)c(O)c4c3C2=O)NC(=O)/C(C)=C\C=C\[C@H](C)[C@H](O)[C@@H](C)[C@@H](O)[C@@H](C)[C@H](OC(C)=O)[C@@H]1C` [Compound 1, rifampicin] here?
A: The value was 79.1 ± 0.6%.

Q: And the “% Protein Free” value [7]?
A: Its value is 20.9 ± 0.6%.

Q: What about the “% Matrix Stability (6 h)” value [7] of the same compound?
A: Its value is 74.3%.

Q: What about the “Broth MIC” value [8] of the same compound?
A: Its value is 16 µM.

Q: What about the “Intracellular MIC” value [9] of the same compound?
A: Its value is “No activity”.

Q: And the “Intracellular MIC” value [10]?
A: The value was “No activity”.

Q: And the “Broth MIC” value [1]?
A: The value was 0.0156 µM.

Q: What about the Papp A→B [11] of the same compound?
A: Its Papp A→B is 0.287 ×10⁻⁶ cm/s.

Q: What about the Papp B→A [11] of the same compound?
A: Its Papp B→A is 6.25 ×10⁻⁶ cm/s.

Q: What about the recovery [11] of the same compound?
A: The recovery was 76.5%.

Q: And the Papp A→B [12]?
A: The Papp A→B was 0.589 ×10⁻⁶ cm/s.

Q: And the Papp B→A [12]?
A: The Papp B→A was 5.93 ×10⁻⁶ cm/s.

Q: And the recovery [13]?
A: Its recovery is 79.5%.

Q: And the “Intracellular MIC” value [2]?
A: Its value is 1 µM.

Q: What about the “% Recovery (vs. T0 stability)” value [14] of the same compound?
A: The value was 81.9%.

Q: And the “S. aureus kidney burden, efficacy” value [3, 24]?
A: The value was “effective; also recorded: reduced kidney burden”.

Q: What about the “S. aureus kidney burden, efficacy” value ([3]; 25 mg/kg monotherapy) of the same compound?
A: The value was “ineffective”.

Q: And the “S. aureus kidney burden, efficacy” value ([3]; doses lower than 0.25 mg/kg in combination with vancomycin)?
A: Its value is “efficacy was reduced to vancomycin alone levels”.

Q: What about the “S. aureus kidney burden” value [4, 24] of the same compound?
A: The value was “to or near the limit of detection”.

Q: What about the “Broth MIC” value [15] of the same compound?
A: Its value is 16 µM.

Q: And the “Mean B-A % Recovery” value [16]?
A: Its value is 80.80%.

Q: And the CLint scaled ([17]; S9 microsomes)?
A: The CLint scaled was < 23.4 mL/min/kg.

Q: What about the remaining at 2 h ([17]; S9 microsomes) of the same compound?
A: The remaining at 2 h was 129%.

Q: And the “Average % Stability” value [18]?
A: Its value is 85.2%.

Q: What about the CLint scaled ([19]; S9 microsomes) of the same compound?
A: Its CLint scaled is < 45.5 mL/min/kg.

Q: What about the remaining at 2 h ([19]; S9 microsomes) of the same compound?
A: Its remaining at 2 h is 125%.

Q: And the “Mean B-A % Recovery” value [20]?
A: The value was 74.40%.

Q: Which “% Protein Bound” value [7] does the source give for `CO[C@H]1/C=C/O[C@@]2(C)Oc3c(C)c(O)c4c(c3C2=O)C2=NC3(CCN(CC(C)C)CC3)NC2=C(NC(=O)/C(C)=C\C=C\[C@H](C)[C@H](O)[C@@H](C)[C@@H](O)[C@@H](C)[C@H](OC(C)=O)[C@@H]1C)C4=O` [Rifabutin] here?
A: Its value is 89.6 ± 0.5%.

Q: What about the “% Protein Free” value [7] of the same compound?
A: The value was 10.4 ± 0.5%.

Q: And the “% Matrix Stability (6 h)” value [7]?
A: Its value is 104.9%.

Q: What about the fold induction [21] of the same compound?
A: The fold induction was 2.65.

Q: What about the Papp A→B [11] of the same compound?
A: The Papp A→B was 3.57 ×10⁻⁶ cm/s.

Q: What about the Papp B→A [11] of the same compound?
A: Its Papp B→A is 16.8 ×10⁻⁶ cm/s.

Q: What about the efflux ratio [11] of the same compound?
A: The efflux ratio was 4.7.

Q: What about the fold induction [22] of the same compound?
A: Its fold induction is 2.36.

Q: And the Papp A→B [12]?
A: The Papp A→B was 11 ×10⁻⁶ cm/s.

Q: And the Papp B→A [12]?
A: Its Papp B→A is 7.15 ×10⁻⁶ cm/s.

Q: What about the efflux ratio [12] of the same compound?
A: The efflux ratio was 0.648.

Q: And the recovery [13]?
A: The recovery was 64.8%.

Q: What about the “% Recovery (vs. T0 stability)” value [14] of the same compound?
A: Its value is 98.2%.

Q: What about the fold induction [23] of the same compound?
A: Its fold induction is 2.

Q: What about the “Mean B-A % Recovery” value [16] of the same compound?
A: The value was 59.10%.

Q: What about the CLint scaled ([17]; s9) of the same compound?
A: The CLint scaled was 2.35 mL/min/kg.

Q: And the half-life ([17]; s9)?
A: The half-life was 19.9 h.

Q: And the remaining at 2 h ([17]; s9)?
A: Its remaining at 2 h is 89%.

Q: What about the “Average % Stability” value [18] of the same compound?
A: The value was 77.8%.

Q: And the CLint scaled ([19]; s9)?
A: Its CLint scaled is 219 mL/min/kg.

Q: What about the half-life ([19]; s9) of the same compound?
A: The half-life was 0.417 h.

Q: And the remaining at 2 h ([19]; s9)?
A: The remaining at 2 h was 4.6%.

Q: And the “Mean A-B % Recovery” value [20]?
A: Its value is 91.30%.

Q: And the “Mean B-A % Recovery” value [20]?
A: Its value is 67.90%.
